Data on eleven compounds can be found in patent US4299838A, “Tryptophan derivatives having an increased effect on the central nervous system” (priority 1974, dated 1981).

A short description of data set [1]: Acute toxicity (LD 50) in the mouse. The data set is classed as in vivo. Particulars: mouse, in vivo, po. From the text: (§1) The oral LD-50 is 16.50 g/kg for DL and 18.25 g/kg for L(+).
Data set [2] in a line: Solubility and hygroscopicity. In kind it is physicochemical.
The nature of data set [3]: Acute toxicity (LD 50) in the mouse. Particulars: mouse, in vivo, ip, intraperitoneal, mice. In kind it is in vivo.
Data set [4] deals with mice. Briefly: Acute toxicity (LD 50) in the mouse. In kind it is in vivo. As to conditions: for LD50: intraperitoneal, mice; for LD-50: oral, mouse.
For a further data set, the system named is depression. Briefly: Clinical tests in depression. In kind it is in vivo. As to conditions: human. From the text:
(§2) The importance of the compounds according to the invention was confirmed by clinical tests.

Data set [5] is described as follows: Pharmacological study, overall comparison. In kind it is in vivo. As to conditions: for pharmacological properties: in vivo.
Data set [6] concerns amphetamine hyperactivity. In words: Potentiation of amphetamine hyperactivity (actography). In kind it is in vivo, mouse. The source says:
(f) Potentiation of amphetamine hyperactivity.

In data set [7] the test system is mice. In words: Acute toxicity (LD 50) in the mouse. The data set is classed as in vivo.
Text: as §1

In the next data set the test system is rat. Briefly: Hypothermic effect on the rat (rectal temperature). As to conditions: 1 g/kg intraperitoneal. In kind it is in vivo. From the text: (a) A hypothermic effect on the rat.
The subject of data set [8] is hyperactivity due to the association of amphetamine and chlorodiazepoxide. In words: Inhibition of hyperactivity due to the association of amphetamine and chlorodiazepoxide (actography). The data set is classed as in vivo, mouse. Particulars: 500 and 1000 mg/kg i.p., 1 hour and 3 hours before (+) amphetamine sulphate (5 mg/kg) and chlorodiazepoxide (25 or 50 mg/kg). As to the method:
(b) Inhibition of hyperactivity due to the association of amphetamine and chlorodiazepoxide;
Simultaneous intraperitoneal administration of (+) amphetamine sulphate (5 mg/kg) and chlorodiazepoxide (25 or 50 mg/kg) to mice produced hyperactivity which was measured by the actography method, wherein the mice are placed in pairs in three suspended cages and their movements are recorded.

The next data set concerns exploratory activity. In words: Exploratory activity in the perforated board test. Particulars: mice. In kind it is in vivo, mouse. The source says: (c) The reduction of exploratory activity in the `perforated board` test (Boissiet and Simon-Arch-Int. Pharmacodyn. 1964, 147, 3-4).
For another data set, the system named is reserpine ptosis. Briefly: Reserpine anti-ptosis effect. The data set is classed as in vivo, mouse. The protocol: (d) A reserpine anti-ptosis effect. Increasing doses of the test product were subcutaneously administered to male mice, 30 minutes before intraperitoneal injection of reserpine. The ptosis was measured every half-hour for 5 hours by the method of Rubin et Coll. (observation of the occlusion of the lids of each eye). The percentage protection against ptosis was calculated, compared with controls. Lithium acetyl tryptothanate reduced ptosis produced by reserpine, to an extent which increased up to a dose of 800 mg/kg (45% reduction).

Data set [9] has as its system analgesia produced by morphine. Briefly: Heating plate test (analgesia produced by morphine). In kind it is in vivo.
The test system of data set [10] is manic-depressive psychoses. Briefly: Clinical tests in manic-depressive psychoses. In kind it is in vivo, human. As to the method: as §2
Lithium N-acetyl tryptophanate was used to treat manic-depressive psychoses.
A person was treated for a manic-depressive psychosis for 6 years. Relapses normally occurred in spring. They were not prevented either by tricyclic drugs or by IMAO substances. Treatment with lithium carbonate produced oligo-menorrhoea, although the patient normally had regular periods.

A short description of data set [11]: Acute toxicity (LD-50) in the rat. Particulars: in vivo.
Text: as §1

The test system of data set [12] is pentobarbitone sleeping time. Briefly: Pentobarbitone sleeping time. In kind it is in vivo. As to conditions: mouse, 35 mg/kg pentobarbitone 5 minutes before sub-cutaneous product.
Data set [13] concerns gastric ulcers. In words: Anti-ulcer effect, stress-ulcer method of Rossi et Coll. In kind it is in vivo, mouse. As to conditions: for DE-50 as fraction of the LD-50 / ED50: stress-ulcer method; for ED50: mouse, read-out: DE-50 (anti-ulcer dose 50). As to the method:
(§3) Mg acetyl tryptophanate dissolved in twice-distilled water was administered 48 hours before, 24 hours before and at the moment when the mouse was put under constraint, or 24 hours before and 1 hour before the ligature of the pylorus.
(§4) The DE-50 (anti-ulcer dose 50) of orally-administered Mg acetyl tryptophanate, measured by the stress-ulcer method, was 1700 mg/kg. The DE-50 of intraperitoneally administered Mg acetyl tryptophanate was 230 mg/kg, measured by the stress-ulcer method (i.e. one-tenth of the LD-50) compared with 16 mg/kg (33/100 of the LD-50) for prifinium bromide; measured by the Shay method, the DE-50 was 340 mg/kg (14/100 of the LD-50) for Mg acetyl tryptophanate, compared with 25 mg/kg (52/100 of the LD-50) for prifinium bromide under the same conditions.

Data set [14] relates to gastric ulcers. Briefly: Anti-ulcer effect, Shay method (ligature of the pylorus). In kind it is in vivo, mouse. Particulars: for ED50: mouse, read-out: DE-50 (anti-ulcer dose 50). As to the method: as §3, §4

In general, LD50 refers to the dose at which mortality reaches 50%. Regarding `CC(=O)NC(Cc1c[nH]c2ccccc12)C(=O)O` (racemic) [Lithium N-acetyl tryptophanate (DL), Li N-acetyl tryptophan (DL)], the results for the LD50 in [1] and in [3] were 8700 mg/kg and 3400 mg/kg, respectively. For the same compound, in [2], the solubility in water result is reported as “very soluble”.

For the compound `CC(=O)NC(Cc1c[nH]c2ccccc12)C(=O)O` (racemic) [Magnesium N-acetyl tryptophanate (DL), magnesium N-acetyl tryptophanate (DL)], the median lethal dose (LD50) was determined as 16500 mg/kg in [1] and 2800 mg/kg with mice [4]. For the same compound, the hygroscopicity entry in data set [2] is “very hygroscopic”.

Take `CC(=O)NC(Cc1c[nH]c2ccccc12)C(=O)O` (racemic) [Monoethanolamine N-acetyl tryptophanate, monoethanolamine N-acetyl tryptophanate (DL)]: in the data set on depression, the “effect on sleep, sthenic action and headaches” value (from here on “effect on sleep”) was “producing normal sleep, accompanied by a daily sthenic action and the control of refractory headaches”; the “use in the treatment of depression” value is on record as “of use in the treatment of depression”. Moreover, the “solubility in chlorine and hydrocarbon derivatives” value in data set [2] (chlorine and hydrocarbon derivatives) is listed as “insoluble”. Moreover, in [2], the solubility in water entry is “fairly soluble”. For the same compound, the pharmacological properties result in data set [5] was “very similar to those of magnesium N-acetyl tryptophanate”. Also, the LD-50 result in the data set on mice [4] is given as “above 18 g/kg”.

Turning to `CC(=O)NC(Cc1c[nH]c2ccccc12)C(=O)O` (racemic) [Morpholine N-acetyl tryptophanate, morpholine N-acetyl tryptophanate], in the data set with depression, the “effect on sleep” value is “producing normal sleep, accompanied by a daily sthenic action and the control of refractory headaches”; the “use in the treatment of depression” value was “of use in the treatment of depression”. For the same compound, the “solubility in chlorinated solvents” value in [2] (chlorinated solvents) is “slightly soluble”. In addition, in data set [2], the solubility in water entry is “very soluble”. Further, the pharmacological properties entry in data set [5] is “very similar to those of magnesium N-acetyl tryptophanate”. The same compound displayed an LD-50 in the data set with mice [4] of 16000 mg/kg.

Turning to `C[C@H](N)Cc1ccccc1` [Dexamphetamine sulphate, dexamphetamine sulphate, reference compound], the “excitation, dexamphetamine sulphate alone” value in data set [6] (5 mg/kg intraperitoneal, mouse) is given as “did not produce very marked excitation”.

On to `CC(=O)N[C@@H](Cc1c[nH]c2ccccc12)C(=O)O` [Lithium N-acetyl tryptophanate L(+), Lithium N-acetyl tryptophanate in the L(+) form], for which the median lethal dose (LD50) in data set [1] was 10500 mg/kg; in data set [3], 3250 mg/kg. For the same compound, the “solubility in chlorinated and aromatic solvents” value in data set [2] (chlorinated and aromatic solvents) is given as “very slightly soluble”. For the same compound, the “solubility in ethyl alcohol” value in data set [2] (ethyl alcohol) is “soluble”. Moreover, the solubility in water result in [2] is “soluble”.

Turning to `CC(=O)NC(Cc1c[nH]c2ccccc12)C(=O)O` (stereo not drawn) [Lithium N-acetyl tryptophanate, lithium N-acetyl tryptophanate], the toxicity in words result in the data set with mice [7] (mouse, in vivo) is reported as “only slightly toxic”. For the same compound, the “oral toxicity in words” value in the data set with mice [7] (oral) is reported as “low”. In addition, in the data set on rat, the “duration of progressive reduction of rectal temperature after injection” value came to 110 min and the “temperature of the rectum” value is recorded as “progressively reduces the temperature of the rectum”. In addition, in [8], the reduction in hyperactivity result is given as “very marked reduction in hyperactivity”. Besides, in the data set on exploratory activity (1000 mg/kg intraperitoneal), the mobility result is “very marked increase in mobility”. Further, the exploratory activity entry in the data set with exploratory activity (1500 mg/kg intraperitoneal) is reported as “significant reduction in exploratory activity”. Further, in the data set on reserpine ptosis (800 mg/kg subcutaneous, 30 minutes before i.p. reserpine, male mice), the “reduction of ptosis produced by reserpine” value stood at 45%. The “excitation with 5 mg/kg dexamphetamine sulphate plus product (actography)” value in [6] (500 mg/kg with 5 mg/kg i.p. dexamphetamine sulphate, mice) is recorded as “to a considerably greater extent than with dexamphetamine sulphate alone”. In addition, the “effect on analgesia produced by morphine” value in [9] is listed as “did not affect analgesia produced by morphine”. For the same compound, the tolerance by patients result in data set [10] (human, in vivo) is recorded as “tolerated by the patients better than lithium carbonate”. Also, the prevention of relapses result in data set [10] (manic-depressive psychoses) is listed as “appeared to prevent relapses into cyclothymia”.

For `O=C(O)O` [Lithium carbonate, lithium carbonate], in data set [10] (observation No. 1), the lithaemia is listed as ≤ 1 meq; the “side effect on menstruation” value was “oligo-menorrhoea”; the “side effects during treatment” value was “nausea and attacks of vomiting”.

`CC(=O)N[C@@H](Cc1c[nH]c2ccccc12)C(=O)O` [Magnesium N-acetyl tryptophanate L(+), L(+) magnesium N-acetyl tryptophanate]: the values for the LD50 (in data set [1]; with mice [4]) were 18200 mg/kg and 2300 mg/kg, respectively. Further, in [2], the solubility in water entry is given as “very soluble”.

Take `CC(=O)NC(Cc1c[nH]c2ccccc12)C(=O)O` (stereo not drawn) [Magnesium N-acetyl tryptophanate, magnesium N-acetyl tryptophanate]: the 50% lethal dose (LD50) in data set [11] (ip, intraperitoneal) was 1350 mg/kg; in data set [11] (oral), > 8000 mg/kg. Further, in the data set with reserpine ptosis (mouse, in vivo), the “reserpine anti-ptosis effect in words” value was “only a very slight reserpine anti-ptosis effect”. Moreover, in data set [12], the average sleeping time result is given as “increased the average sleeping time to an extent proportional to the dose”. For the same compound, the “anti-ulcer effect compared with prifinium bromide” value in the data set on gastric ulcers [13] (both ulcer methods) is “slightly lower anti-ulcer effect than prifinium bromide”. Further, the “safety in therapy compared with prifinium bromide” value in the data set with gastric ulcers [13] (both ulcer methods) is recorded as “safer in therapy”. Moreover, the “DE-50 as fraction of the LD-50” value with gastric ulcers [13] (intraperitoneal) was “one-tenth”; in the data set with gastric ulcers [14], 14/100. Moreover, the ED50 in the data set on gastric ulcers [13] (ip, intraperitoneal) came out at 230 mg/kg; in the data set with gastric ulcers [13] (oral), 1700 mg/kg; with gastric ulcers [14], 340 mg/kg. The “effect on sleep” value with depression is “producing normal sleep, accompanied by a daily sthenic action and the control of refractory headaches”. In the data set on depression, the “use in the treatment of depression” value was “of use in the treatment of depression”. In addition, in [5] (measured by the same tests), the “action compared with lithium acetyl tryptophanate” value is “slower but more prolonged”.

Regarding `CC[N+]1(CC)CCC(=C(c2ccccc2)c2ccccc2)C1C` (stereo not drawn) [Prifinium bromide, prifinium bromide, reference compound], the “DE-50 as fraction of the LD-50” value in the data set with gastric ulcers [13] (intraperitoneal) is 33/100; in the data set with gastric ulcers [14], 52/100. The ED50 with gastric ulcers [13] (ip, intraperitoneal) came to 16 mg/kg; in the data set with gastric ulcers [14] it was 25 mg/kg.
